Laboratory results as given in US8415469B2, “Compounds and methods for kinase modulation, and indications therefor” (Plexxikon Inc., priority 2005, dated 2013).

How the values were obtained:
Format in all cases: biochemical
[1] = biological target: T1, B-Raf (Homo sapiens, UniProt P15056); assay: AlphaScreen kinase assay, B-Raf; details: read-out: IC50, activity toward kinase B-Raf
T1 construct: purchased Upstate Biotechnology

[2] = biological target: T2, B-Raf V600E (Homo sapiens, UniProt P15056, V600E); assay: AlphaScreen kinase assay, B-Raf V600E; details: read-out: IC50, activity toward kinase B-Raf V600E
T2 construct: P4254. pFastBacBD-CDC37 BRAF D437-K722-X, V600E; His6 with pFastBac HT leader (TEV site) (N); made in house; host or cells: Sf9 (baculovirus; chaperone CDC37 co-expressed)

[3] = biological target: T3, Btk (Homo sapiens, UniProt Q06187); assay: Z'-Lyte FRET kinase assay (Invitrogen), Btk; details: read-out: IC50, activity toward kinase Btk
T3 construct: purchased Invitrogen (assay run by Invitrogen)

[4] = biological target: T4, c-Raf-1 (Homo sapiens, UniProt P04049); assay: AlphaScreen kinase assay, c-Raf-1; details: read-out: IC50, activity toward kinase c-Raf-1
T4 construct: purchased Upstate Biotechnology

[5] = biological target: T5, FGFR1 (Homo sapiens, UniProt P11362, C488A/C584S); assay: AlphaScreen kinase assay, FGFR1; details: read-out: IC50, activity toward kinase FGFR
T5 construct: P1351.pET N6 BI-PTP FGFR A458-E765-X C488A, C584S; made in house; host or cells: E. coli (PTP1B co-expressed)

[6] = biological target: T6, Fms (Homo sapiens, UniProt P07333); assay: AlphaScreen kinase assay, Fms; details: read-out: IC50, activity toward kinase Fms
T6 construct: purchased Upstate Biotechnology

[7] = biological target: T7, Jnk1 (Homo sapiens, UniProt P45983); assay: AlphaScreen kinase assay, Jnk1; details: read-out: IC50, activity toward kinase Jnk1
T7 construct: purchased Upstate Biotechnology

[8] = biological target: T8, Jnk2 (Homo sapiens, UniProt P45984); assay: AlphaScreen kinase assay, Jnk2; details: read-out: IC50, activity toward kinase Jnk2
T8 construct: purchased Roche Protein Expression Group (Indianapolis, IN)
Method in brief: (§1)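 Biotinylated peptide substrate is phosphorylated by kinase; anti-phosphopeptide antibody on acceptor beads and streptavidin donor beads bring emission when substrate is phosphorylated. Inhibition lowers acceptor signal. Compounds from 20 mM DMSO stock tested as 8-point 1:3 serial dilutions.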

[9] = biological target: T9, Jnk3 (Homo sapiens, UniProt P53779); assay: AlphaScreen kinase assay, Jnk3; details: read-out: IC50, activity toward kinase Jnk3
T9 construct: purchased Upstate Biotechnology

[10] = biological target: T10, Kit (Homo sapiens, UniProt P10721); assay: AlphaScreen kinase assay, Kit; details: read-out: IC50, activity toward kinase Kit
T10 construct: P1332.N6 BI PTP KIT M552-K948-X COD; His6 (N); made in house; host or cells: E. coli (PTP1B co-expressed)

[11] = biological target: T11, MAP2K1 (Homo sapiens, UniProt Q02750); assay: Z'-Lyte FRET kinase assay (Invitrogen), MAP2K1; details: read-out: IC50, activity toward kinase MAP2K1
T11 construct: purchased Invitrogen (assay run by Invitrogen)

[12] = biological target: T12, Ret (Homo sapiens, UniProt P07949); assay: AlphaScreen kinase assay, Ret; details: read-out: IC50, activity toward kinase Ret
T12 construct: P1378.pET-SF BI-PTP RET H661-R1012 HIS; made in house
T12 sequence (P07949 with tags, fused parts or gaps): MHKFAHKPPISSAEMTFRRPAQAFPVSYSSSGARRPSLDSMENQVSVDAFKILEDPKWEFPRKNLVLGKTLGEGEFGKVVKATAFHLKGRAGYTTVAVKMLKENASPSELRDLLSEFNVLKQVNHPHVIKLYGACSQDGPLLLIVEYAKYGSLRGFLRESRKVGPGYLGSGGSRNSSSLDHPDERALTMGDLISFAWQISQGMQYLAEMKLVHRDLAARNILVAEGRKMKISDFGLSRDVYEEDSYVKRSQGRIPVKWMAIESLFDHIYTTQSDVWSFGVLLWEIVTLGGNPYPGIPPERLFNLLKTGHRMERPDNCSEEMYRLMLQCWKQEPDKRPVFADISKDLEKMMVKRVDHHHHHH

[13] = biological target: T13, Src (Homo sapiens, UniProt P12931); assay: AlphaScreen kinase assay, Src; details: read-out: IC50, activity toward kinase Src
T13 construct: P1144. pET-N6 BI-PTP SRC V86-L536-X; made in house

[14] = biological target: Gsk3β (Homo sapiens, UniProt P49841); assay: AlphaScreen kinase assay, Gsk3β; details: read-out: IC50, activity toward kinase Gsk3β
Method in brief: as §1

[15] = biological target: MAP4K4 (Homo sapiens, UniProt O95819); assay: AlphaScreen kinase assay, MAP4K4; details: read-out: IC50, activity toward kinase MAP4K4
[16] = biological target: IGF1R (Homo sapiens, UniProt P08069); assay: AlphaScreen kinase assay, IGF1R; details: read-out: IC50, activity toward kinase IGF1R
[17] = biological target: T14, Kdr (Homo sapiens, UniProt P35968); assay: Z'-Lyte FRET kinase assay (Invitrogen), Kdr; details: read-out: IC50, activity toward kinase Kdr
T14 construct: purchased Invitrogen (assay run by Invitrogen)

[18] = biological target: T15, Stk6 (Homo sapiens, UniProt O14965); assay: Z'-Lyte FRET kinase assay (Invitrogen), Stk6; details: read-out: IC50, activity toward kinase Stk6
T15 construct: purchased Invitrogen (Carlsbad, Calif.), screening service
T15 sequence (O14965 1-403): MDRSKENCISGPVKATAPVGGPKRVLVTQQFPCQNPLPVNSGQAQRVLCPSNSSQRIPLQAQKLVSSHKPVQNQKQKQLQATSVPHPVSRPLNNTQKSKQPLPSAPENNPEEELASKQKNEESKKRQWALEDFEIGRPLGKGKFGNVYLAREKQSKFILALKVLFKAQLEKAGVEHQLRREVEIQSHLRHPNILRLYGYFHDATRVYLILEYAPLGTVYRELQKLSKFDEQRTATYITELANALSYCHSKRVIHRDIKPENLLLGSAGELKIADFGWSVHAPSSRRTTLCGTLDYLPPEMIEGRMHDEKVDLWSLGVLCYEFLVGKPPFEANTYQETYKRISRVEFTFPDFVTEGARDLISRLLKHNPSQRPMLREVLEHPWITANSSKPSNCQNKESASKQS

[19] = biological target: T16, IKK beta (Homo sapiens, UniProt O14920); assay: AlphaScreen kinase assay, IKK beta; details: read-out: IC50, activity toward kinase IKK beta
T16 sequence (O14920 1-756): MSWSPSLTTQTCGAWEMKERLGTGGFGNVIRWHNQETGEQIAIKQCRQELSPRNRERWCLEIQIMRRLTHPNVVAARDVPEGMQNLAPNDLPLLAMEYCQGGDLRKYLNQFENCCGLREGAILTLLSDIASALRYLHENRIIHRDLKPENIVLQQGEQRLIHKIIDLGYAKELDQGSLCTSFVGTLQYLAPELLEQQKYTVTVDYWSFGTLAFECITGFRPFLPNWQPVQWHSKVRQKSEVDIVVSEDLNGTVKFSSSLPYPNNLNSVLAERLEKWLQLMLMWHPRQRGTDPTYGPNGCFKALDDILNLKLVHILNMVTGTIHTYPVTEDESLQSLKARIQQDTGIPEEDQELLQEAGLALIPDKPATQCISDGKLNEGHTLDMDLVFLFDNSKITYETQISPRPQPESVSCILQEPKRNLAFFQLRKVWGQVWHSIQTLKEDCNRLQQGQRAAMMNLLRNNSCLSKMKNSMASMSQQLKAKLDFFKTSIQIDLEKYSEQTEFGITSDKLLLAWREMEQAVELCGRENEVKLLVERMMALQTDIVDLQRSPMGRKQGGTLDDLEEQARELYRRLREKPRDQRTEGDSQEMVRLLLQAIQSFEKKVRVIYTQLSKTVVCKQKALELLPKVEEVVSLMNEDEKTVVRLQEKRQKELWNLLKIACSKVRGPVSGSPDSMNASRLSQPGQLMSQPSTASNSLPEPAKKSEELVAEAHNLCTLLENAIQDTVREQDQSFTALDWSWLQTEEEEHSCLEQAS

[20] = biological target: T17, Fak (Homo sapiens, UniProt Q05397); assay: AlphaScreen kinase assay, Fak; details: read-out: IC50, activity toward kinase Fak
T17 construct: P1358.pFastBacHtb FAK S411-Q686-X; His6 with pFastBacHTb leader (TEV site) (N); made in house; host or cells: Sf9 (baculovirus)

[21] = biological target: T18, Flt1 (Homo sapiens, UniProt P17948); assay: AlphaScreen kinase assay, Flt1; details: read-out: IC50, activity toward kinase Flt1
T18 construct: P1826.pETN6 BI-PTP FLT1 M799-D1165-X WT; His6 (N); made in house; host or cells: E. coli (PTP1B co-expressed)
T18 sequence (P17948 with tags, fused parts or gaps): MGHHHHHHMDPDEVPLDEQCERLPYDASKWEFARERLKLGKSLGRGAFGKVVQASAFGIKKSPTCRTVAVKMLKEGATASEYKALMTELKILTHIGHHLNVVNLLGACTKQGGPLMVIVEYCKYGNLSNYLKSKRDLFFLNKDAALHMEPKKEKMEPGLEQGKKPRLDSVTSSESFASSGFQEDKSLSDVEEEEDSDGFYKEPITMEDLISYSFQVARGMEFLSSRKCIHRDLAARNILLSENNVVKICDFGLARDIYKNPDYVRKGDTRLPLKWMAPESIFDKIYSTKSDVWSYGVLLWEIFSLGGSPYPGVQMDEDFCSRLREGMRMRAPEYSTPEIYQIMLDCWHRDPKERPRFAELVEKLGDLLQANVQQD

[22] = biological target: T19, Met (Homo sapiens, UniProt P08581); assay: AlphaScreen kinase assay, Met; details: read-out: IC50, activity toward kinase Met
T19 construct: P1818.pETN6 BI-PTP MET G1056-G1364-X WT; His6 (N); made in house; host or cells: E. coli (PTP1B co-expressed)
Method in brief: as §1

[23] = biological target: T20, Pyk2 (Homo sapiens, UniProt Q14289); assay: AlphaScreen kinase assay, Pyk2; details: read-out: IC50, activity toward kinase Pyk2
T20 construct: purchased Upstate Biotechnology

T4 sequence (P04049 whole entry): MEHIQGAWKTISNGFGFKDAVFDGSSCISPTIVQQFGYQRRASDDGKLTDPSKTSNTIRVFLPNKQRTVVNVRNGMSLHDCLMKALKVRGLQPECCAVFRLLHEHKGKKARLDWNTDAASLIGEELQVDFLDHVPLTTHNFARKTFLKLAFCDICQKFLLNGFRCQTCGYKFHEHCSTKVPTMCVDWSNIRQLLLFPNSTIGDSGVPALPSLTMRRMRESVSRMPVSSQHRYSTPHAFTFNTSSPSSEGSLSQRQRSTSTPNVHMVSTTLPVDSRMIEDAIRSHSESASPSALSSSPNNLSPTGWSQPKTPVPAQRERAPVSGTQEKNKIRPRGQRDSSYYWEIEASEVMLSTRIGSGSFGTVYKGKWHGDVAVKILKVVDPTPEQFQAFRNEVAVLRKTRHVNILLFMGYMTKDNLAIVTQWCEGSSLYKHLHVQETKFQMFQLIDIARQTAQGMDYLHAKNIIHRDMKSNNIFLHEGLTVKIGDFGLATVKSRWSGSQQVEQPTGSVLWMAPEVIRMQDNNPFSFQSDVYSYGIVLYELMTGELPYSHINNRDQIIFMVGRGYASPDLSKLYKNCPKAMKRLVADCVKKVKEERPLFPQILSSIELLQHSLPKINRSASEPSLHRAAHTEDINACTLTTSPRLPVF
T10 sequence (P10721 with tags, fused parts or gaps): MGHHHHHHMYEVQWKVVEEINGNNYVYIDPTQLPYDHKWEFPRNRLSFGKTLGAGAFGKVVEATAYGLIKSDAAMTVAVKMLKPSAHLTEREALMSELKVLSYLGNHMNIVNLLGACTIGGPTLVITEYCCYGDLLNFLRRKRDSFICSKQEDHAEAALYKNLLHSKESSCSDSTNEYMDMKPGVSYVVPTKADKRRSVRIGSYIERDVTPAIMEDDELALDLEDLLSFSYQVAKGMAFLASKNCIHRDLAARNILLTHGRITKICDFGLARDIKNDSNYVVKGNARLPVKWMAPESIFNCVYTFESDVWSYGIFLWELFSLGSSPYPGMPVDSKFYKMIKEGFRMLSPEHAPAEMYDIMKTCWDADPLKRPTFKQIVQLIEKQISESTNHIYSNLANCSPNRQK
Chain of Gsk3β (P49841 whole entry): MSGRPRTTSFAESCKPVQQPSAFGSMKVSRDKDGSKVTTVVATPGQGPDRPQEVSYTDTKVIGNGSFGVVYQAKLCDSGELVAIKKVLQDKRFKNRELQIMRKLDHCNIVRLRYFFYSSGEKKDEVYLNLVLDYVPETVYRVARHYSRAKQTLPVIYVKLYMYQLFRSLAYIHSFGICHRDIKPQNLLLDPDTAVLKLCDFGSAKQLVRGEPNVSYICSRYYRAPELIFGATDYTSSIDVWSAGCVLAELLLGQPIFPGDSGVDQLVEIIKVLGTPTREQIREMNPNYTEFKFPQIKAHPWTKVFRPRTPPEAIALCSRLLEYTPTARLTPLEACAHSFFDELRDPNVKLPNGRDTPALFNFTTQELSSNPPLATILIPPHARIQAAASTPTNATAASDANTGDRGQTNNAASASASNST
T17 sequence (Q05397 411-686): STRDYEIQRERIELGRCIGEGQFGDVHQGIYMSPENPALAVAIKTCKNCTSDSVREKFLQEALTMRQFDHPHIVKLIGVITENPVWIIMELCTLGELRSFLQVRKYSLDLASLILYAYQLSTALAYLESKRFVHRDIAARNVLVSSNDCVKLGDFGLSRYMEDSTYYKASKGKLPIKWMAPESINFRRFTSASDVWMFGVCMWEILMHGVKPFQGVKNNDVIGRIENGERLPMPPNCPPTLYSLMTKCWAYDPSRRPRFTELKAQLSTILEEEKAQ
T13 sequence (P12931 with tags, fused parts or gaps): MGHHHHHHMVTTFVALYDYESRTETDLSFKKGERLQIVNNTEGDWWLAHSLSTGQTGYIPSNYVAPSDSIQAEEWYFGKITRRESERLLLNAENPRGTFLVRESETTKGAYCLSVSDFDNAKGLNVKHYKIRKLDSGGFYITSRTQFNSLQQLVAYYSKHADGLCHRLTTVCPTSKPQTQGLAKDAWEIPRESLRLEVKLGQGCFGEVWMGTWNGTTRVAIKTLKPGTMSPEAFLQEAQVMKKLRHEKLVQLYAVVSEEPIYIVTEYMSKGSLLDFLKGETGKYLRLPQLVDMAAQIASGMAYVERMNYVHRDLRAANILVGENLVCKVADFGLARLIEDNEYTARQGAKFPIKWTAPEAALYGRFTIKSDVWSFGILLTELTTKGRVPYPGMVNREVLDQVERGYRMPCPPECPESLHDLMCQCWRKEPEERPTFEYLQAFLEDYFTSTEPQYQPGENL
T5 sequence (P11362 458-765 C488A/C584S): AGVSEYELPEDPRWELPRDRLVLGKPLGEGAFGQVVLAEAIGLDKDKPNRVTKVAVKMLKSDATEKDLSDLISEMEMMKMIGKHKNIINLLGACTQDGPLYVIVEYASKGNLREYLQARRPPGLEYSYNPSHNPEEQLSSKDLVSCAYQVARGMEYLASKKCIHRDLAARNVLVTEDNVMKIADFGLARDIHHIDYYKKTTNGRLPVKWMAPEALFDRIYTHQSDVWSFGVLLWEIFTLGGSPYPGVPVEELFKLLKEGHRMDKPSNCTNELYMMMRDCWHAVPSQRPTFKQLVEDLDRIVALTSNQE
T8 sequence (P45984 whole entry): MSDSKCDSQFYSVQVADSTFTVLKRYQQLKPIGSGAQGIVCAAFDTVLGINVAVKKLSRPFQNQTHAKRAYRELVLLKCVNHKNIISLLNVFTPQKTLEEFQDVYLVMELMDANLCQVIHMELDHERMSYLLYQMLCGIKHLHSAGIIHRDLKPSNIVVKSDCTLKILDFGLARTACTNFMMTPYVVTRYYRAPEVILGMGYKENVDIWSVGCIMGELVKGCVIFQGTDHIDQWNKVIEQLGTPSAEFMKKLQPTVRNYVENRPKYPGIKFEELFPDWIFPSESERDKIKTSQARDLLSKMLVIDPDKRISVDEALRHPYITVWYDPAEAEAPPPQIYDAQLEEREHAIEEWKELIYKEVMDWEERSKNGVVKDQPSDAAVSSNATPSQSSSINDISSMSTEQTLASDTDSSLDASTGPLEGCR
T6 sequence (P07333 20-972): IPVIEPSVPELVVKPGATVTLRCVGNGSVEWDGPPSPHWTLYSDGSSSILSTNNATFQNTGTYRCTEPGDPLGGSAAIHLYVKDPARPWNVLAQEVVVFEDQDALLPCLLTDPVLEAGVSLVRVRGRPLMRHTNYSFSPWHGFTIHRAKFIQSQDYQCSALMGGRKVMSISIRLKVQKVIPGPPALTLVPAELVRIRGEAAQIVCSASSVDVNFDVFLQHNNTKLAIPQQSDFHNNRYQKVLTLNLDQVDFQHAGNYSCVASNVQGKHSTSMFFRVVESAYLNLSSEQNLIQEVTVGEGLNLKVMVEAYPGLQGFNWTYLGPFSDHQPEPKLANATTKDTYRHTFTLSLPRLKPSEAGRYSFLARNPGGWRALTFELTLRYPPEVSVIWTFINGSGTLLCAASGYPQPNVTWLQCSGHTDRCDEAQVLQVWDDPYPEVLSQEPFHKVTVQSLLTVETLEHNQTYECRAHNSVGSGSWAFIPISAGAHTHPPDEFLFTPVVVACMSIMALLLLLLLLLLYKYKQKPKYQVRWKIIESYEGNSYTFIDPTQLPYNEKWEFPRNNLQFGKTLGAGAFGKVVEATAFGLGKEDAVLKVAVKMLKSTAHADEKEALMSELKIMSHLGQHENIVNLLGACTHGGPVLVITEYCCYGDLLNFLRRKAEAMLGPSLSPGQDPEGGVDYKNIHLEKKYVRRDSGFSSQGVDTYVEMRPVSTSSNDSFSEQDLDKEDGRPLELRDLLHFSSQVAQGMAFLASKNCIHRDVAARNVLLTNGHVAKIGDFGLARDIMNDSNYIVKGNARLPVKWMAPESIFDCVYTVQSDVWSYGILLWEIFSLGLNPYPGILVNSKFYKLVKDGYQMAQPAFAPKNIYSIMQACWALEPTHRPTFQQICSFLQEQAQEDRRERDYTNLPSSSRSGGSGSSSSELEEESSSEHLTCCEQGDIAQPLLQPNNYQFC
T1 sequence (P15056 whole entry): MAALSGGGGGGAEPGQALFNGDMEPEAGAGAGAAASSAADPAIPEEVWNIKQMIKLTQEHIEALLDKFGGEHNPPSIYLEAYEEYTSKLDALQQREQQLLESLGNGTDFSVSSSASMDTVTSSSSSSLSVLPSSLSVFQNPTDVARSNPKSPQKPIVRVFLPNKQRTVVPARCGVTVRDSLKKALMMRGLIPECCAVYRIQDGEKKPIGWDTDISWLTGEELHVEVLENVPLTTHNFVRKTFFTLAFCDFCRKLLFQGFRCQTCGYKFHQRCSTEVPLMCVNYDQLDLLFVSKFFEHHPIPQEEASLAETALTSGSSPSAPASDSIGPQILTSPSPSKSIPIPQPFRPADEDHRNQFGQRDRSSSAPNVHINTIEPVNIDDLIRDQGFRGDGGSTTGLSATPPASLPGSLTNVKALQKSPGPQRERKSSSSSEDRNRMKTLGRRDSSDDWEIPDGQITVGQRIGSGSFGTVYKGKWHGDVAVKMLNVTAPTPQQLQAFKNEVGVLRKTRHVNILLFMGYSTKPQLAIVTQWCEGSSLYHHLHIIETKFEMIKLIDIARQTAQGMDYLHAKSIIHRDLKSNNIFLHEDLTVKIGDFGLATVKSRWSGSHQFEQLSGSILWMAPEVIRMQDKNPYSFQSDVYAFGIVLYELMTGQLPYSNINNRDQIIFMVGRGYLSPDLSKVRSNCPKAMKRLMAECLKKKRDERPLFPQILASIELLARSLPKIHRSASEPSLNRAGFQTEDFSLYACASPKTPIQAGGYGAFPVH
T2 sequence (P15056 with tags, fused parts or gaps V600E): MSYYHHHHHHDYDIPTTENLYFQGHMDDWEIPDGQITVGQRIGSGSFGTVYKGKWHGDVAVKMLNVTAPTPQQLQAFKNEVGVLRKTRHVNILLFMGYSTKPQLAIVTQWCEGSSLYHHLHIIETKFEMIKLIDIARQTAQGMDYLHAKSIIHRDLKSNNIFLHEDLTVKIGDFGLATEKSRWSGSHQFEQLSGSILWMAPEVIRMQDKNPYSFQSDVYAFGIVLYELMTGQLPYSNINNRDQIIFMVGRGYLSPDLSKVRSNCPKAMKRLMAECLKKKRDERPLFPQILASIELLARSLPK

IC50 [1] | IC50 [2] | IC50 [3] | IC50 [4] | IC50 [5] | IC50 [6] | IC50 [7] | IC50 [8] | IC50 [9] | IC50 [10] | IC50 [12] | IC50 [13] | IC50 [14] | IC50 [15] | IC50 [16] | IC50 [20] | IC50 [22] | IC50 [23] | SMILES | also measured
≤ 10 µM | ≤ 10 µM | ≤ 10 µM | ≤ 10 µM | ≤ 10 µM | ≤ 10 µM | ≤ 10 µM | ≤ 10 µM | ≤ 10 µM | ≤ 10 µM | ≤ 10 µM | ≤ 10 µM | ≤ 10 µM | ≤ 10 µM | ≤ 10 µM | – | – | – | CS(=O)(=O)Nc1ccc(F)c(C(=O)c2c[nH]c3ncc(-c4cccnc4)cc23)c1 [Compound P-0079, N-[4-Fluoro-3-(5-pyridin-3-yl-1H-pyrrolo[2,3-b]pyridine-3-carbonyl)-phenyl]-methanesulfonamide] | IC50 [11]: ≤ 10 µM
– | – | – | – | – | – | – | – | ≤ 10 µM | ≤ 10 µM | ≤ 10 µM | – | – | – | ≤ 10 µM | – | – | – | CC(=O)Nc1cccc(-c2cnc3[nH]ccc3c2)c1 [Compound P-0115] | IC50 [17]: ≤ 10 µM; IC50 [18]: ≤ 10 µM; IC50 [19]: ≤ 10 µM
≤ 10 µM | ≤ 10 µM | – | ≤ 10 µM | ≤ 10 µM | – | ≤ 10 µM | ≤ 10 µM | – | ≤ 10 µM | ≤ 10 µM | ≤ 10 µM | ≤ 10 µM | ≤ 10 µM | ≤ 10 µM | ≤ 10 µM | ≤ 10 µM | ≤ 10 µM | CS(=O)(=O)Nc1ccc(F)c(C(=O)c2c[nH]c3ncc(-c4cccnc4)cc23)c1F [Compound P-0700, N-[2,4-Difluoro-3-(5-pyridin-3-yl-1H-pyrrolo[2,3-b]pyridine-3-carbonyl)-phenyl]-methanesulfonamide] | IC50 [21]: ≤ 10 µM
≤ 10 µM | ≤ 10 µM | – | ≤ 10 µM | ≤ 10 µM | – | – | ≤ 10 µM | – | – | ≤ 10 µM | – | – | – | ≤ 10 µM | – | ≤ 10 µM | – | CS(=O)(=O)Nc1cccc(-c2cnc3[nH]cc(C(=O)c4c(F)ccc(NS(C)(=O)=O)c4F)c3c2)c1 [Compound P-0746, N-{2,4-Difluoro-3-[5-(3-methanesulfonylamino-phenyl)-1H-pyrrolo[2,3-b]pyridine-3-carbonyl]-phenyl}-methanesulfonamide] | –
≤ 10 µM | ≤ 10 µM | – | ≤ 10 µM | ≤ 10 µM | ≤ 10 µM | ≤ 10 µM | – | – | ≤ 10 µM | – | ≤ 10 µM | ≤ 10 µM | ≤ 10 µM | ≤ 10 µM | ≤ 10 µM | – | ≤ 10 µM | CC(C)S(=O)(=O)Nc1ccc(F)c(C(=O)c2c[nH]c3ncc(-c4cccnc4)cc23)c1F [Compound P-0850, propane-2-sulfonic acid [2,4-difluoro-3-(5-pyridin-3-yl-1H-pyrrolo[2,3-b]pyridin-3-carbonyl)-phenyl]-amide] | –
≤ 10 µM | ≤ 10 µM | ≤ 10 µM | ≤ 10 µM | ≤ 10 µM | ≤ 10 µM | ≤ 10 µM | – | – | ≤ 10 µM | – | ≤ 10 µM | – | – | ≤ 10 µM | ≤ 10 µM | – | – | COc1ccc(F)c(C(=O)c2c[nH]c3ncc(-c4cccc(NC(C)=O)c4)cc23)c1F [Compound P-1390, N-{3-[3-(2,6-Difluoro-3-methoxy-benzoyl)-1H-pyrrolo[2,3-b]pyridin-5-yl]-phenyl}-acetamide] | –
